Results reported in article PMC12325182, “Discovery of novel and potent celastrol derivatives as PRDX1 inhibitors for cancer therapy through structure-based virtual screening” (Frontiers in Pharmacology, 2025).
Like-named read-outs stand apart in the source and are kept apart here.

Assays:
[1] = target: T1, PRDX1 (Homo sapiens, UniProt Q06830); assay: PRDX1 inhibition assay; assay type: biochemical
T1 sequence (Q06830 1-199): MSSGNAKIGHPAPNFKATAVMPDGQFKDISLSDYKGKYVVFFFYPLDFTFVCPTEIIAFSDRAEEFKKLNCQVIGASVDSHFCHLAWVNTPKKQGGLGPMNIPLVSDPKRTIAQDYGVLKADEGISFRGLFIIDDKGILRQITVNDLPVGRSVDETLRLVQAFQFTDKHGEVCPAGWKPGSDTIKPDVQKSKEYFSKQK
Procedure: The cells were purchased from the American Type Culture Collection (ATCC) (Manassas, VA, United States). Cells were cultured in RPMI-1640 medium supplemented with 10% FBS, 50 units/mL penicillin, and 50 μg/mL streptomycin, and maintained at 37°C in a 5% CO2 humidified culture environment. CPs 1-5 were purchased from WuXi AppTec. Human PRDX1 proteins were purchased from Abcam (Cambridge, MA, United States).
First, […] buffer (20 mM HEPES, 5 mM EDTA, 5 μM cofactor A, 2 μM cofactor B, and 300 μM NADPH) was added to a 96-well plate. The test compounds at the designated concentration (0.02–2 nM, with 1.5-fold dilution) were incubated with PRDX1 at 37°C for 25 min, and then the co-incubated mixture was added to each well to a final concentration of 200 nM PRDX1. Finally, 200 μM H2O2 was added to each well to initiate the enzyme reaction cycle. The oxidation of NADPH was determined by the absorption value at 340 nm. Read plate values for 90 s for one cycle and repeat for 20 cycles. The positive control (celastrol, concentrations 0.06–64 μM) was tested in parallel under identical experimental conditions. Three independent replicate experiments were performed.

[2] = tested on: A549 lung cancer cells; assay: MTT assay; assay type: cell-based; settings: Homo sapiens, read-out: IC50 (μM) A549
Procedure: (§1) Cells were seeded in 96-well plates at 5 ×10^4 cells/well and cultured overnight at 37°C under 5% CO2. After medium removal, cells were treated with serially diluted compounds (0.04–163.84 μM) or vehicle control (0.1% DMSO) and incubated for 72 h. Subsequently, 20 μL of MTT solution (5 mg/mL) was added to each well, and incubation was continued for 4 h. Add 150 μL of DMSO and shake for 10 min to fully dissolve the crystal. Finally, the absorbance was measured at 570 nm using a microplate reader. Cell viability was calculated as (ODcompound - ODblank)/(ODvehicle - ODblank) × 100%. The half inhibitory concentration (IC50) was calculated from the dose-response curve using Prism 8.0 software. Three independent replicate experiments were performed.

[3] = tested on: BEAS-2B normal lung cells; assay: MTT assay; assay type: cell-based; settings: Homo sapiens, 72 h
Procedure: as §1

[4] = target: T1, PRDX1; assay: MST assay; assay type: binding
Procedure: The MST assays were carried out in a buffer composed of 50 mM Tris, 200 mM NaCl, and 0.1% (v/v) TWEEN20. PRDX1 was tagged with the MO-L011 protein labeling kit (RED-NHS second Generation). The diluted compounds were combined with the tagged PRDX1 protein and allowed to stand at room temperature for 5 minutes. Subsequently, the reaction mixture was loaded into capillaries, and measurements were taken using a Monolith NT.115 instrument.

[5] = tested on: HEK293 (embryonic kidney cells); assay: MTT assay; assay type: cell-based; settings: Homo sapiens, HEK293, 72 h, read-out: IC50 (μM) HEK293
Procedure: as §1

[6] = tested on: HaCaT (immortalised keratinocytes); assay: MTT assay; assay type: cell-based; settings: Homo sapiens, 72 h, normal cells, mean ± SD, n = 3
Procedure: as §1

[7] = tested on: HepG2 (hepatocellular carcinoma cells); assay: MTT assay; assay type: cell-based; settings: Homo sapiens, HepG2, 72 h, read-out: IC50 (μM) HepG2
Procedure: as §1

[8] = tested on: LO2 (normal liver cells); assay: MTT assay; assay type: cell-based; settings: Homo sapiens, 72 h, read-out: IC50 (μM) LO2
Procedure: as §1

[9] = tested on: MCF-7 (breast adenocarcinoma cells); assay: MTT assay; assay type: cell-based; settings: Homo sapiens, MCF7, 72 h, read-out: IC50 (μM) MCF-7
Procedure: as §1

[10] = mean ± SD, n = 3, read-out: PRDX1 (IC50)
[11] = A549, MTT, 72 h, mean ± SD, n = 3
[12] = MTT, normal lung cells, mean ± SD, n = 3, read-out: IC50 (μM) BEAS-2B

Structure (SMILES): CC1=C(CC(=O)/C=C/C2=CC(CO)=CC2)C(=O)C=C2C1=CC=C1[C@@]2(C)CC[C@@]2(C)C3C[C@](C)(C(=O)NCc4cccc(C(O)C(O)O)c4)CC[C@]3(C)CC[C@]12C (stereo partly drawn) [CP2]
- IC50 [1, 10]: 0.17 ± 0.02 nM
- IC50 [2, 11]: 0.46 ± 0.03 µM
- IC50 [3, 12]: > 100 µM

Structure (SMILES): Cc1ncc(CNC(=O)[C@]2(C)CC[C@]3(C)CC[C@]4(C)C5=CC=C6C=C(CC(=O)/C=C/c7cccc(CO)c7)C(=O)C=C6C5CC[C@@]4(C)C3C2)nc1C(C)C(O)O (stereo partly drawn) [CP3]
- IC50 [1, 10]: 0.25 ± 0.01 nM
- IC50 [2, 11]: 0.57 ± 0.05 µM
- IC50 [3, 12]: > 100 µM

Structure (SMILES): C[C@@]1(C(=O)NCc2cccc(CC(O)O)c2)CC[C@]2(C)CC[C@]3(C)C4=CC=C5C=C(CC(=O)/C=C/c6cccc(CO)c6)C(=O)C=C5C4CC[C@@]3(C)C2C1 (stereo partly drawn) [CP4]
- IC50 [1, 10]: 0.31 ± 0.03 nM
- IC50 [2, 11]: 0.63 ± 0.04 µM
- IC50 [3, 12]: > 100 µM

Structure (SMILES): C=C(/C=C(C)\C=C\C(=O)CC1=CC2=CC=C3C(CC[C@@]4(C)C5C[C@](C)(C(=O)NCc6cccc(CC(O)O)c6)CC[C@]5(C)CC[C@]34C)C2=CC1=O)CO (stereo partly drawn) [CP5]
- IC50 [1, 10]: 0.36 ± 0.02 nM
- IC50 [2, 11]: 0.68 ± 0.06 µM
- IC50 [3, 12]: > 100 µM

Structure (SMILES): CC1=C(O)C(=O)C=C2C1=CC=C1[C@@]2(C)CC[C@@]2(C)[C@@H]3C[C@](C)(C(=O)O)CC[C@]3(C)CC[C@]12C [Celastrol, celastrol]
- IC50 [1]: 510 ± 40 nM
- Kd [4]: 320 ± 20 nM
- IC50 ([2]; A549, 72 h): 1.24 ± 0.08 µM
- IC50 ([3]; read-out: IC50 (μM) BEAS-2B): 0.45 ± 0.03 µM
- IC50 [5]: 5.76 ± 0.12 µM
- IC50 [6]: 17.4 ± 0.54 µM
- IC50 [7]: 1.28 ± 0.05 µM
- IC50 [8]: 24 ± 0.69 µM
- IC50 [9]: 1.31 ± 0.06 µM
